Reference: patent publication US10940139B2, “Compounds that interact with the Ras superfamily for the treatment of cancers, inflammatory diseases, rasopathies, and fibrotic disease” (Shy Therapeutics LLC, priority 2017, dated 2021)
Like-named read-outs stand apart in the source and are kept apart here.

What was measured:
[1] = target: KRas G12D/Q61H double mutant (Homo sapiens (Human), UniProt P01116, G12D/Q61H); test: Ras GTP binding domain inhibition assay (labeled GTP); conditions: for IC50: serial dilution, read-out: KRas G12D Q61H (classes E-H, IC50)
How it was run: (§1)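 Fluorescence read-out of Cy3-/Cy5-GTP remaining bound to nickel-immobilized His-KRas after washes. Protein was coated overnight at 4° C, then exposed to compound for 3 h at room temperature before a 45 min labeled-GTP incubation.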

[2] = target: KRas G12C/Q61H double mutant (Homo sapiens (Human), UniProt P01116, G12C/Q61H); test: as above; conditions: 20 μM compound; read-out: % Inhibition at 20 μM KRas G12C Q61H
How it was run: as §1

KRas Q61H mutant = KRas Q61H mutant (Homo sapiens (Human), UniProt P01116, Q61H); test: as above; conditions: 20 μM compound; read-out: % Inhibition at 20 μM KRas Q61H
How it was run: as §1

Rho-A = Rho-A (Homo sapiens (Human), UniProt P61586); test: Rho inhibition assay (labeled GTP); assay type: binding; conditions: read-out: Rho-A % Inh.
Rac-1 = Rac-1 (Homo sapiens (Human), UniProt P63000); test: Rac inhibition assay (labeled GTP); assay type: binding; conditions: read-out: Rac-1 % Inh.
KRas G12D mutant protein = KRas G12D mutant protein (Homo sapiens (Human), UniProt P01116, G12D); test: Ras GTP binding domain inhibition assay (labeled GTP); conditions: at 20 μM; read-out: KRas G12D % Inh.
[3] = 20 μM compound, read-out: % Inhibition at 20 μM KRas G12D Q61H
[4] = at 20 μM, read-out: KRas G12D Q61H % Inh.

Sequence of KRas G12D/Q61H double mutant (P01116-2 other isoform, or with tags, fused parts or gaps G12D/Q61H): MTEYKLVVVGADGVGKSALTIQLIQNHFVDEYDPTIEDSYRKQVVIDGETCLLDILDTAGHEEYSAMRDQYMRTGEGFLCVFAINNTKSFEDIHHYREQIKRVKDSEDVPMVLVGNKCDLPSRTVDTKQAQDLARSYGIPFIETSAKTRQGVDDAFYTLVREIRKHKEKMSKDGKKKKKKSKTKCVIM
Sequence of Rho-A (P61586 whole entry): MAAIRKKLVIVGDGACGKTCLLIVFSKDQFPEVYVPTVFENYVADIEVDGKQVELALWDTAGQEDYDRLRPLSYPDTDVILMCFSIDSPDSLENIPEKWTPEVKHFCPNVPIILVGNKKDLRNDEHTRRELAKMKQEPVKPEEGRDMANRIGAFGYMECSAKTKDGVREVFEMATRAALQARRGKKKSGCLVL
Sequence of KRas Q61H mutant (P01116-2 other isoform, or with tags, fused parts or gaps Q61H): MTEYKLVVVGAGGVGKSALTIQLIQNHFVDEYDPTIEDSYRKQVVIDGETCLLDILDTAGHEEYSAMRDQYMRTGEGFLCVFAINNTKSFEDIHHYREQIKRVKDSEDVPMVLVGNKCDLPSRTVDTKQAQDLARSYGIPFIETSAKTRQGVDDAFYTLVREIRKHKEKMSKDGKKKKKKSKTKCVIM
Sequence of KRas G12C/Q61H double mutant (P01116-2 other isoform, or with tags, fused parts or gaps G12C/Q61H): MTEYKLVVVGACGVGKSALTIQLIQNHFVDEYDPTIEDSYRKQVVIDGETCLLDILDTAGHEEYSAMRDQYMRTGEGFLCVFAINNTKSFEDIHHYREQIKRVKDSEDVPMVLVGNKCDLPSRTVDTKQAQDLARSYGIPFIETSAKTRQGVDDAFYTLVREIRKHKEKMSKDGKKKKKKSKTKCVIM
Sequence of KRas G12D mutant protein (P01116-2 other isoform, or with tags, fused parts or gaps G12D): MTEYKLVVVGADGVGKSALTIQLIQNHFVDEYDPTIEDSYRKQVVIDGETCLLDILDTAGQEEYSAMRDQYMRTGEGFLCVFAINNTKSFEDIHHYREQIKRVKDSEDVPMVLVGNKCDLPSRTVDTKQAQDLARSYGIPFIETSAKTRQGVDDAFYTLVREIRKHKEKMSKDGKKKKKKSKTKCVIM

| SMILES | inhibition at 20 µM [1, 3] [%] | inhibition at 20 µM [2] [%] | inhibition at 20 µM (KRas Q61H mutant) [%] | IC50 [1] [µM] | inhibition at 20 µM (Rho-A) [%] | inhibition at 20 µM (Rac-1) [%] | inhibition at 20 µM [1, 4] [%] | inhibition at 20 µM (KRas G12D mutant protein) [%] |
| --- | --- | --- | --- | --- | --- | --- | --- | --- |
| Oc1nc(-c2ccccn2)nc2c(-c3ccccc3)csc12 [drawing 2694] | 25 to 50 | 25 to 50 | 51 to 75 | – | – | – | – | – |
| COc1cccc(N2CCN(C(=O)c3csc4c(O)nc(-c5ccccn5)nc34)CC2)c1 [drawing 2713] | 1 to 25 | 51 to 75 | 51 to 75 | – | – | – | – | – |
| Cc1ccccc1N1CCN(C(=O)c2csc3c(O)nc(-c4ccccn4)nc23)CC1 [drawing 2723] | 25 to 50 | 51 to 75 | 51 to 75 | – | – | – | – | – |
| O=C(c1csc2c(O)nc(-c3ccccn3)nc12)N1CCN(Cc2cccc(O)c2)CC1 [drawing 2726] | 76 to 100 | 76 to 100 | 76 to 100 | 11 to 30 | – | – | – | – |
| O=C(c1csc2c(O)nc(-c3ccccn3)nc12)N1CCOC(c2cccc(F)c2)C1 (centres unmarked) [drawing 2732] | 25 to 50 | 1 to 25 | 1 to 25 | – | – | – | – | – |
| O=C(c1csc2c(O)nc(-c3ccccn3)nc12)N1CCOC(c2nccs2)C1 (centres unmarked) [drawing 2734] | 25 to 50 | 51 to 75 | 51 to 75 | 5 to 10 | – | – | – | – |
| COc1ccnc(-c2nc(O)c3c(Br)csc3n2)c1 [drawing 2742] | 25 to 50 | 1 to 25 | 25 to 50 | – | – | – | – | – |
| O=C(NCCc1cccnc1)c1csc2nc(-c3ccccn3)nc(N3CCOCC3)c12 [drawing 2744] | 1 to 25 | 25 to 50 | 51 to 75 | – | – | – | – | – |
| COc1ccc(CCNC(=O)c2csc3nc(-c4ccccn4)nc(N4CCOCC4)c23)cn1 [drawing 2745] | 25 to 50 | 25 to 50 | 51 to 75 | – | – | – | – | – |
| COc1ccc(CCN(C)C(=O)c2csc3nc(-c4ccccn4)nc(N4CCOCC4)c23)cn1 [drawing 2746] | 0 | 25 to 50 | 25 to 50 | – | – | – | – | – |
| COc1cc(CCNC(=O)c2csc3nc(-c4ccccn4)nc(N4CCOCC4)c23)ccn1 [drawing 2747] | 1 to 25 | 25 to 50 | 25 to 50 | – | – | – | – | – |
| COc1ncc(CCNC(=O)c2csc3nc(-c4ccccn4)nc(N4CCOCC4)c23)cn1 [drawing 2748] | 1 to 25 | 25 to 50 | 25 to 50 | – | – | – | – | – |
| O=C(NCCc1cncs1)c1csc2nc(-c3ccccn3)nc(N3CCOCC3)c12 [drawing 2749] | 1 to 25 | 25 to 50 | 25 to 50 | – | – | – | – | – |
| N#Cc1ccc(CCNC(=O)c2csc3nc(-c4ccccn4)nc(N4CCOCC4)c23)cc1 [drawing 2750] | 1 to 25 | 1 to 25 | 1 to 25 | – | – | – | – | – |
| CC(C)(C(=O)Nc1ccnc(-c2ccccn2)n1)c1ccc(C#N)cc1 [drawing 2751] | 1 to 25 | 51 to 75 | 51 to 75 | – | – | – | – | – |
| CC(C)(C(=O)Nc1nc(-c2ccccn2)nc2sccc12)c1ccc(C#N)cc1 [drawing 2752] | 0 | 1 to 25 | 1 to 25 | – | – | – | – | – |
| O=C(c1csc2c(O)nc(-c3ccccn3)nc12)N1CCN(c2cccc(F)c2)CC1 [drawing 2753] | 25 to 50 | 51 to 75 | 76 to 100 | – | – | – | – | – |
| O=C(c1csc2c(O)nc(-c3ccccn3)nc12)N1CCN(c2ccc(F)cc2)CC1 [drawing 2754] | 0 | 25 to 50 | 25 to 50 | – | – | – | – | – |
| CC(C)c1csc2c(O)nc(-c3ccccn3)nc12 [drawing 3806] | – | – | – | – | 51 to 75 | 51 to 75 | 51 to 75 | 51 to 75 |
| COc1ccc(CCC(=O)Nc2nc(-c3ccccn3)nc3sccc23)cn1 [drawing 3812] | – | – | – | – | 76 to 100 | 76 to 100 | 51 to 75 | 51 to 75 |
| CC(C)Cc1csc2c(O)nc(-c3ccccn3)nc12 [drawing 3813] | – | – | – | – | 76 to 100 | 76 to 100 | 51 to 75 | 51 to 75 |
| Oc1nc(-c2ccccn2)nc2c(C3CCCC3)csc12 [drawing 3814] | – | – | – | – | 76 to 100 | 76 to 100 | 51 to 75 | 51 to 75 |
| COc1cnc(-c2cn(C)cn2)nc1O [drawing 3815] | – | – | – | – | 76 to 100 | 76 to 100 | 51 to 75 | 51 to 75 |

| SMILES | inhibition at 20 µM [1, 3] [%] | inhibition at 20 µM [2] [%] | inhibition at 20 µM (KRas Q61H mutant) [%] | IC50 [1] [µM] | inhibition at 20 µM (Rho-A) [%] | inhibition at 20 µM (Rac-1) [%] | inhibition at 20 µM [1, 4] [%] | inhibition at 20 µM (KRas G12D mutant protein) [%] |
| --- | --- | --- | --- | --- | --- | --- | --- | --- |
| Cc1sc2c(O)nc(-c3ccccn3)nc2c1-c1ccncc1 [drawing 3816] | – | – | – | – | 25 to 50 | 51 to 75 | 51 to 75 | 51 to 75 |
| Oc1cccc(-c2csc3c(O)nc(-c4ccccn4)nc23)n1 [drawing 3817] | – | – | – | – | 76 to 100 | 76 to 100 | 51 to 75 | 51 to 75 |
| Oc1nc(-c2ccccn2)nc2c(-c3cc(CN4CCCC4)ccc3F)csc12 [drawing 3821] | – | – | – | – | 76 to 100 | 76 to 100 | 51 to 75 | 76 to 100 |
| Cc1nn(C(C)C)cc1-c1csc2c(O)nc(-c3ccccn3)nc12 [drawing 3825] | – | – | – | – | 76 to 100 | 76 to 100 | 51 to 75 | 51 to 75 |
| Cc1sc2c(O)nc(-c3ccccn3)nc2c1C(=O)N1CCN(c2ccccc2)CC1C (centres unmarked) [drawing 3828] | – | – | – | – | 51 to 75 | 51 to 75 | 51 to 75 | 51 to 75 |
| COc1cnc(-c2nccn2C)nc1O [drawing 3831] | – | – | – | – | 76 to 100 | 76 to 100 | 76 to 100 | 76 to 100 |
| Nc1cccc(-c2csc3c(O)nc(-c4ccccn4)nc23)n1 [drawing 3832] | – | – | – | – | 76 to 100 | 76 to 100 | 51 to 75 | 51 to 75 |
| Cc1sc2c(O)nc(-c3ccccn3)nc2c1-c1ccccc1Cl [drawing 3833] | – | – | – | – | 76 to 100 | 76 to 100 | 51 to 75 | 51 to 75 |
| COc1cnc(-c2cnc[nH]2)nc1O [drawing 3834] | – | – | – | – | 76 to 100 | 76 to 100 | 51 to 75 | 51 to 75 |
| Oc1nc(-c2ccccn2)nc2c(CC3CCNC3)csc12 (centres unmarked) [drawing 3844] | – | – | – | – | 76 to 100 | 76 to 100 | 51 to 75 | 51 to 75 |
| O=c1[nH]c(-c2ccccn2)nc2c([C@@H]3O[C@H](CO)[C@@H](O)[C@H]3O)csc12 [drawing 3845] | – | – | – | – | 51 to 75 | 51 to 75 | 25 to 50 | 25 to 50 |
| COCCNc1nc(-c2cn(C)cn2)nc2sc(-c3ccncc3)c(-c3ccccc3)c12 [drawing 3848] | – | – | – | – | 76 to 100 | 76 to 100 | 76 to 100 | 51 to 75 |
| COc1nc(-c2cn(C)cn2)nc2sc(-c3ccncc3)c(-c3ccccc3)c12 [drawing 3849] | – | – | – | – | 51 to 75 | 25 to 50 | 25 to 50 | 25 to 50 |
| OCC1(c2ccc(-c3nc(-c4ccccn4)nc(O)c3Oc3ccccc3)cc2)CC1 [drawing 3852] | – | – | – | – | 76 to 100 | 51 to 75 | 51 to 75 | 25 to 50 |
| COCCNc1nc(-c2ccccn2)nc2c1c(-c1ccccc1)nn2-c1ccccn1 [drawing 3856] | – | – | – | – | 76 to 100 | 76 to 100 | 51 to 75 | 51 to 75 |
| Oc1nc(-c2ccccn2)nc2c1c(-c1ccccc1)nn2-c1ccccn1 [drawing 3857] | – | – | – | – | 51 to 75 | 51 to 75 | 51 to 75 | 51 to 75 |
| COc1nc(-c2ccccn2)nc2c1c(-c1ccccc1)nn2-c1ccccn1 [drawing 3858] | – | – | – | – | 76 to 100 | 76 to 100 | 51 to 75 | 51 to 75 |
| COCC(C)Nc1nc(-c2ccccn2)nc2sc(-c3ccncc3)c(-c3ccccc3)c12 (centres unmarked) [drawing 3859] | – | – | – | – | 51 to 75 | 51 to 75 | 51 to 75 | 25 to 50 |
| COc1c(O)nc(-c2ccccn2)nc1Oc1cccc(C(F)(F)F)c1 [drawing 3875] | – | – | – | – | 76 to 100 | 51 to 75 | 51 to 75 | 76 to 100 |
| Oc1nc(-c2ccccn2)nc(Oc2cccc(C(F)(F)F)c2)c1O [drawing 3876] | – | – | – | – | 51 to 75 | 51 to 75 | 51 to 75 | 51 to 75 |
| Oc1nc(-c2ccccn2)nc2cc(-c3ccncc3)sc12 [drawing 3879] | – | – | – | – | 51 to 75 | 25 to 50 | 51 to 75 | 51 to 75 |
| Oc1nc(-c2ccccn2)nc2cc(-c3ccccc3)sc12 [drawing 3880] | – | – | – | – | 51 to 75 | 25 to 50 | 51 to 75 | 51 to 75 |
